Laboratory results from ChEMBL document CHEMBL1126443, “Cholinergic agents: aldehyde, ketone, and oxime analogues of the muscarinic agonist UH5” (Bioorg Med Chem Lett, 1992).

Experiments:
[1] = molecular target: T1, Muscarinic acetylcholine receptor (Rattus norvegicus) (UniProt P08482+P08483+P08485+P08911+P10980); assay: Percent inhibition towards muscarinic receptor in rat neocortex using 0.03 nM [3H]quinuclidinyl benzylate receptor binding assay (RQMB) was determined
[2] = molecular target: T1, Muscarinic acetylcholine receptor (Rattus norvegicus); assay: Percent inhibition towards muscarinic receptor in rat neocortex using 0.1 nM [3H]cis-methyldioxolane receptor binding assay (RCMD)
[3] = molecular target: Muscarinic acetylcholine receptor; assay: Inhibition of 0.03 nM [3H]quinuclidinyl benzylate binding to rat neocortex muscarinic receptor; format: protein assay
[4] = molecular target: T2, Muscarinic acetylcholine receptor M1 (Homo sapiens, UniProt P11229); assay: Displacement of [3H]QNB in genetically transformed mouse cell line (m1C2) transfected with Muscarinic acetylcholine receptor M1
T2 sequence (P11229 whole entry): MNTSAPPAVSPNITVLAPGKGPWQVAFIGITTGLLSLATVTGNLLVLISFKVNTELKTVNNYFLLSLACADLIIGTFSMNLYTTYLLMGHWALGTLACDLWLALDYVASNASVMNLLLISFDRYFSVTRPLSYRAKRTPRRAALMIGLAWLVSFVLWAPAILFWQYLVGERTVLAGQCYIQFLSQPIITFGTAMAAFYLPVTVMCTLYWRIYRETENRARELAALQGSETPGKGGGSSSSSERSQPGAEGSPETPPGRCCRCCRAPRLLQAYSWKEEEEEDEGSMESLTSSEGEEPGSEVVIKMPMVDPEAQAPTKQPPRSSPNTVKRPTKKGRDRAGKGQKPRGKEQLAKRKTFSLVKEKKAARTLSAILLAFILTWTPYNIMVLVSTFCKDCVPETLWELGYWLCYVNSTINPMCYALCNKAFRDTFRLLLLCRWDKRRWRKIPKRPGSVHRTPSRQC

[5] = molecular target: T3, Muscarinic acetylcholine receptor M2 (Rattus norvegicus, UniProt P10980); assay: Displacement of [3H]QNB from Muscarinic acetylcholine receptor M2 from rat heart homogenates; format: tissue-based
T3 sequence (P10980 whole entry): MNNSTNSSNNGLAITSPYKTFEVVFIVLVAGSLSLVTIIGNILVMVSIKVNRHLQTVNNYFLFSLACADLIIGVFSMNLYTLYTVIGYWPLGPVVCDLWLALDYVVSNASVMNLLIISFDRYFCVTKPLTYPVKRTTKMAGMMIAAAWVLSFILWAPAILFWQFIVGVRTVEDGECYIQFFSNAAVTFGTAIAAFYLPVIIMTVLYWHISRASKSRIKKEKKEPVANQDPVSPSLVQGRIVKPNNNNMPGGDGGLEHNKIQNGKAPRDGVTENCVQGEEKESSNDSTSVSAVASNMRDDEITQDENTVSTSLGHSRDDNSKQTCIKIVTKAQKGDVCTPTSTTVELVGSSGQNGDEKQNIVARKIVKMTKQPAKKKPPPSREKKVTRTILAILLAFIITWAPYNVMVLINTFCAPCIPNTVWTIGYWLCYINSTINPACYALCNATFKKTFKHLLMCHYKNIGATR

[6] = Selectivity ratio of M2/m1 receptors
[7] = molecular target: T1, Muscarinic acetylcholine receptor (Rattus norvegicus); assay: Relative binding efficacy for muscarinic receptors using QNB and CMD; format: protein assay
[8] = molecular target: Muscarinic acetylcholine receptor; assay: Inhibition of 0.1 nM [3H]cis-methyldioxolane binding to rat neocortex muscarinic receptor; format: protein assay

SMILES: CO/N=C(\C)CCC#CCN1CCCC1
- inhibition [1]: 17%
- inhibition [2]: 5%

SMILES: C[N+](C)(C)CC#CCOC(=O)Nc1cccc(Cl)c1.[Cl-]
- IC50 [3]: 5.388 µM
- IC50 [4]: 7.24 µM
- IC50 [5]: 34.1 µM
- Selectivity ratio [6]: 4.7
- Efficacy ratio [7]: 84
- IC50 [8]: 0.064 µM

SMILES: CC(=O)CCC#CCN1CCCC1
- IC50 [3]: 7.28 µM
- Efficacy ratio [7]: 34
- IC50 [8]: 0.214 µM

SMILES: O=C1CCCN1CC#CCN1CCCC1 [OXOTREMORINE]
- IC50 [3]: 0.407 µM
- IC50 [4]: 0.364 µM
- Selectivity ratio [6]: 2.4
- Efficacy ratio [7]: 308
- IC50 [8]: 0.0015 µM

SMILES: CC(/C=N/O)CC#CCN1CCCC1 (centres undefined)
- IC50 [3]: 1.928 µM
- IC50 [4]: 0.92 µM
- IC50 [5]: 5.5 µM
- Selectivity ratio [6]: 4.8
- Efficacy ratio [7]: 92
- IC50 [8]: 0.021 µM

SMILES: CO/N=C(\C)CCC#CCN(C)C
- inhibition [1]: 1%
- inhibition [2]: 5%

SMILES: C/C(=N\O)C(C)CC#CCN1CCCC1 (centres undefined)
- inhibition [1]: 15%
- inhibition [2]: 21%

SMILES: CC(C=O)CC#CCN1CCCC1 (centres undefined)
- inhibition [1]: 9%
- inhibition [2]: 1%

SMILES: CC(=O)C(C)CC#CCN1CCCC1 (centres undefined)
- IC50 [3]: 5.696 µM
- IC50 [4]: 2.8 µM
- IC50 [5]: 6.5 µM
- Selectivity ratio [6]: 2.3
- Efficacy ratio [7]: 97
- IC50 [8]: 0.059 µM

SMILES: CO/N=C/C(C)CC#CCN(C)C (centres undefined)
- inhibition [1]: 4%
- inhibition [2]: 6%

SMILES: C/C(CCC#CCN(C)C)=N\O
- IC50 [3]: 36.769 µM
- Efficacy ratio [7]: 265
- IC50 [8]: 0.139 µM

SMILES: CC(=O)C(C)CC#CCN(C)C (centres undefined)
- IC50 [3]: 55.4 µM
- Efficacy ratio [7]: 549
- IC50 [8]: 0.101 µM

SMILES: CO/N=C(\C)C(C)CC#CCN(C)C (centres undefined)
- inhibition [1]: 3%
- inhibition [2]: 5%

SMILES: CC(=O)N(C)CC#CCN(C)C
- IC50 [3]: 87.876 µM
- IC50 [4]: 87.9 µM
- IC50 [5]: 4.46 µM
- Selectivity ratio [6]: 0.2
- Efficacy ratio [7]: 4070
- IC50 [8]: 0.0216 µM

SMILES: CC(/C=N/O)CC#CCN(C)C (centres undefined)
- IC50 [3]: 13.23 µM
- IC50 [4]: 25.9 µM
- IC50 [5]: 34.2 µM
- Selectivity ratio [6]: 1.3
- Efficacy ratio [7]: 441
- IC50 [8]: 0.03 µM

SMILES: C/C(CCC#CCN1CCCC1)=N\O
- IC50 [3]: 1.254 µM
- Efficacy ratio [7]: 3
- IC50 [8]: 0.373 µM

SMILES: CO/N=C/C(C)CC#CCN1CCCC1 (centres undefined)
- inhibition [1]: 15%
- inhibition [2]: 27%

SMILES: CC(=O)CCC#CCN(C)C
- IC50 [3]: 65.6 µM
- IC50 [4]: 51.8 µM
- IC50 [5]: 18.9 µM
- Selectivity ratio [6]: 0.4
- Efficacy ratio [7]: 965
- IC50 [8]: 0.068 µM

SMILES: CC(=O)N(C)CC#CCN1CCCC1
- IC50 [3]: 2.447 µM
- IC50 [4]: 2.45 µM
- IC50 [5]: 2.01 µM
- Selectivity ratio [6]: 0.9
- Efficacy ratio [7]: 544
- IC50 [8]: 0.0045 µM

SMILES: CC(C=O)CC#CCN(C)C (centres undefined)
- inhibition [1]: 0%
- inhibition [2]: 0%

SMILES: CO/N=C(\C)C(C)CC#CCN1CCCC1 (centres undefined)
- inhibition [1]: 26%
- inhibition [2]: 21%

SMILES: C/C(=N\O)C(C)CC#CCN(C)C (centres undefined)
- inhibition [1]: 9%
- inhibition [2]: 12%
